From ChEMBL document CHEMBL1201862, “PubChem BioAssay data set” (2004) come the findings set out here.

Active and inactive are the calls of the source.

The target of experiment [1] is T1, Hepatocyte nuclear factor 4-alpha (Homo sapiens, UniProt P41235).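 Also: biochemical luminescence-based dose-response counterscreen measuring inhibition of HNF4 dimerization, run alongside a screen for blockers of ABHD5–perilipin-5 interaction; split luciferase complementation of HNF4 fusion proteins in cell lysate measuring dimerization.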
T1 sequence (P41235 whole entry): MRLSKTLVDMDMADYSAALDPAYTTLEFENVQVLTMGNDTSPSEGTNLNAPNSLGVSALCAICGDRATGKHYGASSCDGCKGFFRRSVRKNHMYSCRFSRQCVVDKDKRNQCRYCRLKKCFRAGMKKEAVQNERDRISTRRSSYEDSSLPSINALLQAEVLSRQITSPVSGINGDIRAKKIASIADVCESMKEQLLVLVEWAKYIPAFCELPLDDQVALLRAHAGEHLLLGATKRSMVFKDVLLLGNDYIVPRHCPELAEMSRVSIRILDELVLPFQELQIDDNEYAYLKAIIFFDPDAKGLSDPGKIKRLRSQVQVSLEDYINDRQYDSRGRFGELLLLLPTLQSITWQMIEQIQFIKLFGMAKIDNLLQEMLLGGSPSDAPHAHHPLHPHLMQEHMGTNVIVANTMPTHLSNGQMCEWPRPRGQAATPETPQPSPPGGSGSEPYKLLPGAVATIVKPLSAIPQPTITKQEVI
Format: functional, cell-based.

Experiment [2] concerns the target Voltage-gated inwardly rectifying potassium channel KCNH2 (Homo sapiens, UniProt Q12809). The note with it: Potency.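 Also: confirmatory quantitative high-throughput screen measuring inhibition of hERG channel activity.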
Experiment [3] deals with Streptococcus. Briefly: Group A Streptococcus viability loss, dose response, counter-screen for streptokinase expression inhibitor project, luminescence, BacTiterGlo (AID 1915).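 Also: potency for reduction of bacterial viability or growth.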 Format: functional, organism-based. A general note: The purpose of a counterscreen is to sort out artefacts and off-target activity.
Experiment [4] concerns the target T2, Streptokinase A (Streptococcus pyogenes serotype M1, UniProt P10520).
T2 sequence (P10520 whole entry): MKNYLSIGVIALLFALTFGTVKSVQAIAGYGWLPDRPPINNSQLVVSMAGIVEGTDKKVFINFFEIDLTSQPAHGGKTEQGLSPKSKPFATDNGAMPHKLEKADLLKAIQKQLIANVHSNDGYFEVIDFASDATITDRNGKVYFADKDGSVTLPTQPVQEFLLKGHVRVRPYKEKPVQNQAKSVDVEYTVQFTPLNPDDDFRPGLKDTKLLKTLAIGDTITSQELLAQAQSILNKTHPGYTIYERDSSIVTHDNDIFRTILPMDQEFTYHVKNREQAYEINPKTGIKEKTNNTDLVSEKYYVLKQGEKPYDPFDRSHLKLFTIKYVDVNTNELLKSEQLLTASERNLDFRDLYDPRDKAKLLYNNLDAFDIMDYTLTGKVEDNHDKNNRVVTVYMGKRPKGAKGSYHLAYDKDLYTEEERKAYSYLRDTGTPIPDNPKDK
Briefly: S. pyogenes streptokinase expression inhibitors, potency, dose response, plasminogen activation absorbance, OD405 (AID 1914).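 Also: secreted streptokinase activity via plasminogen activation per viability signal from cell pellet.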 Format: functional, Streptococcus pyogenes M1 GAS.

Experiment [5] deals with Vero. Briefly: Vero cell cytotoxicity, cytotoxicity control for flavivirus capping enzyme inhibitors (AID 588742). Format: functional. The following applies: Chlorocebus sabaeus.
Experiment [6] concerns the target Genome polyprotein (dengue virus type 2, UniProt P29990). Briefly: Dengue-2 NS5 methyltransferase inhibitors, primary screen, biochemical, confirmation dose response (AID 588689). Format: functional.
Experiment [7] concerns Streptococcus sp. 'group A'. Briefly: growth inhibition of control SK(-) GAS strain, dose response, counter-screen for streptokinase expression inhibitor project, luminescence, kanamycin, BacTiterGlo, confirmation (AID 1900). It counts as functional, organism-based.
For experiment [8], the target named is Cytochrome P450 2C9 (Homo sapiens, UniProt P11712).
Experiment [9] concerns the target Cytochrome P450 3A4 (Homo sapiens, UniProt P08684).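 Also: CYP3A4 tested as one member of a cytochrome P450 panel screen.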
Experiment [10] deals with T3, Insulin-degrading enzyme (Homo sapiens, UniProt P14735).
T3 sequence (P14735 whole entry): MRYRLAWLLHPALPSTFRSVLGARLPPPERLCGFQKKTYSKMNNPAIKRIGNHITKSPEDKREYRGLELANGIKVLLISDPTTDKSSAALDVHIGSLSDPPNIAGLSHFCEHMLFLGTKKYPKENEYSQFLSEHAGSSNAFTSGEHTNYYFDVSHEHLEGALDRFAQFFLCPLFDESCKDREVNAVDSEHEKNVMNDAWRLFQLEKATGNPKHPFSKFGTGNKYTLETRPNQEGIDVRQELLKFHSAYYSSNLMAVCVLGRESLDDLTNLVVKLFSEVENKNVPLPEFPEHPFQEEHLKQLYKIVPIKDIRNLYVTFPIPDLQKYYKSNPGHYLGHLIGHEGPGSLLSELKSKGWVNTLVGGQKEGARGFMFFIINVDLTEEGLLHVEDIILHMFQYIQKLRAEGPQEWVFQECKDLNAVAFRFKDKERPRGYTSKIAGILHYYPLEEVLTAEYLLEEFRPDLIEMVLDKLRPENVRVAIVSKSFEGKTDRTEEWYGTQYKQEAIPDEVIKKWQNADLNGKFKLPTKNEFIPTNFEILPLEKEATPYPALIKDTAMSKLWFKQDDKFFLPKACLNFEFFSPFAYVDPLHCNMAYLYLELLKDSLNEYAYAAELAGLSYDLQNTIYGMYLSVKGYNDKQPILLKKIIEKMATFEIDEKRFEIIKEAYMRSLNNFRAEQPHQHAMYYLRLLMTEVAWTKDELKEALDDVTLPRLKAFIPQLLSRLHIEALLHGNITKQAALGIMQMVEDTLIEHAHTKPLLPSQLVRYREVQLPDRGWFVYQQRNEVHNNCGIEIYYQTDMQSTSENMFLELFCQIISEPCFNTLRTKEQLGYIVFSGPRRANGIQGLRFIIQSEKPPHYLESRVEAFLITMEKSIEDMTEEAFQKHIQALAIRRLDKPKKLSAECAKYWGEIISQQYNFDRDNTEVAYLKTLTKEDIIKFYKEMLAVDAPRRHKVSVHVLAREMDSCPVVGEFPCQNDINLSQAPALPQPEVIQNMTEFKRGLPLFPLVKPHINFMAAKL
Briefly: activators of endogenous IDE in HEK cells, dose response, cell-based, fluorescence polarization (AID 588439). It counts as functional. In general terms: In fluorescence polarisation assays a small probe gives low polarisation when free and higher when bound to something large.

Experiment [11] has as its system HEK293. Briefly: HEK cell cytotoxicity by LDH release, dose response, cytotoxicity control for IDE activator project, fluorescence, HEK cells (AID 588440).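 Also: cytotoxicity by LDH release measuring loss of membrane integrity.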 The following applies: Homo sapiens. Format: functional, cell-based.
Experiment [12] deals with T3, Insulin-degrading enzyme. Briefly: activators of recombinant IDE enzyme, dose response, counter-screen for IDE activator project, biochemical, fluorescence polarization (AID 588681).
Experiment [13] concerns HEK293. Briefly: optical interference in Abeta FP readout, dose response, artefact control for IDE activator project, biochemical, fluorescence polarization (AID 588442). Format: functional, cell-based. The following applies: Homo sapiens.
The target of experiment [14] is Peroxisome proliferator-activated receptor gamma/Nuclear receptor coactivator 3 (Homo sapiens, UniProt P37231). Briefly: TR-FRET dose response biochemical High Throughput Screening assay for agonists of the steroid receptor coactivator 3 (SRC-3) recruitment by the peroxisome proliferator-activated receptor gamma (PPAR gamma): non-selective agonists. [Related pubchem assays: 1301 (Confirmation screen.), 1048 (Primary screen.)]. It counts as functional.

Experiment [15] deals with Peroxisome proliferator-activated receptor gamma/Nuclear receptor coactivator 2 (Homo sapiens, UniProt P37231). Briefly: TR-FRET dose response biochemical High Throughput Screening assay for agonists of the steroid receptor coactivator 2 (SRC-2) recruitment by the peroxisome proliferator-activated receptor gamma (PPAR gamma): non-selective agonists. [Related pubchem assays: 1297, 1032 ]. Format: functional.
Peroxisome proliferator-activated receptor gamma/Nuclear receptor coactivator 2, sequence (P37231 whole entry): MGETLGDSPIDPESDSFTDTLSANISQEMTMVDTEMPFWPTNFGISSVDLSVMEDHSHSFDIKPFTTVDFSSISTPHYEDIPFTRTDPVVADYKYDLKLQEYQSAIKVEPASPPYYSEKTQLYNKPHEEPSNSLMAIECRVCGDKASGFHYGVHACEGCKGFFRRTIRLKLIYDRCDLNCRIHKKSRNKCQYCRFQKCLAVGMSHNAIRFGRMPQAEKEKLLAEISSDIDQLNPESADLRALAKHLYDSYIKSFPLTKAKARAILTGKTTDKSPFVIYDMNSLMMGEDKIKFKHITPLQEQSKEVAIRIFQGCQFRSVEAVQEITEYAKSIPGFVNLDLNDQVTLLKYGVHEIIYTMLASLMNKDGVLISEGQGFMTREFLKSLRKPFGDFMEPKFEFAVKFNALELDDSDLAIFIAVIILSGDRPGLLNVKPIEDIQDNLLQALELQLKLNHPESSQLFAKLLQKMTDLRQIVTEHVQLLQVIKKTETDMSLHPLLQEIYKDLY
Peroxisome proliferator-activated receptor gamma/Nuclear receptor coactivator 2, sequence (Q15596 whole entry, further chain): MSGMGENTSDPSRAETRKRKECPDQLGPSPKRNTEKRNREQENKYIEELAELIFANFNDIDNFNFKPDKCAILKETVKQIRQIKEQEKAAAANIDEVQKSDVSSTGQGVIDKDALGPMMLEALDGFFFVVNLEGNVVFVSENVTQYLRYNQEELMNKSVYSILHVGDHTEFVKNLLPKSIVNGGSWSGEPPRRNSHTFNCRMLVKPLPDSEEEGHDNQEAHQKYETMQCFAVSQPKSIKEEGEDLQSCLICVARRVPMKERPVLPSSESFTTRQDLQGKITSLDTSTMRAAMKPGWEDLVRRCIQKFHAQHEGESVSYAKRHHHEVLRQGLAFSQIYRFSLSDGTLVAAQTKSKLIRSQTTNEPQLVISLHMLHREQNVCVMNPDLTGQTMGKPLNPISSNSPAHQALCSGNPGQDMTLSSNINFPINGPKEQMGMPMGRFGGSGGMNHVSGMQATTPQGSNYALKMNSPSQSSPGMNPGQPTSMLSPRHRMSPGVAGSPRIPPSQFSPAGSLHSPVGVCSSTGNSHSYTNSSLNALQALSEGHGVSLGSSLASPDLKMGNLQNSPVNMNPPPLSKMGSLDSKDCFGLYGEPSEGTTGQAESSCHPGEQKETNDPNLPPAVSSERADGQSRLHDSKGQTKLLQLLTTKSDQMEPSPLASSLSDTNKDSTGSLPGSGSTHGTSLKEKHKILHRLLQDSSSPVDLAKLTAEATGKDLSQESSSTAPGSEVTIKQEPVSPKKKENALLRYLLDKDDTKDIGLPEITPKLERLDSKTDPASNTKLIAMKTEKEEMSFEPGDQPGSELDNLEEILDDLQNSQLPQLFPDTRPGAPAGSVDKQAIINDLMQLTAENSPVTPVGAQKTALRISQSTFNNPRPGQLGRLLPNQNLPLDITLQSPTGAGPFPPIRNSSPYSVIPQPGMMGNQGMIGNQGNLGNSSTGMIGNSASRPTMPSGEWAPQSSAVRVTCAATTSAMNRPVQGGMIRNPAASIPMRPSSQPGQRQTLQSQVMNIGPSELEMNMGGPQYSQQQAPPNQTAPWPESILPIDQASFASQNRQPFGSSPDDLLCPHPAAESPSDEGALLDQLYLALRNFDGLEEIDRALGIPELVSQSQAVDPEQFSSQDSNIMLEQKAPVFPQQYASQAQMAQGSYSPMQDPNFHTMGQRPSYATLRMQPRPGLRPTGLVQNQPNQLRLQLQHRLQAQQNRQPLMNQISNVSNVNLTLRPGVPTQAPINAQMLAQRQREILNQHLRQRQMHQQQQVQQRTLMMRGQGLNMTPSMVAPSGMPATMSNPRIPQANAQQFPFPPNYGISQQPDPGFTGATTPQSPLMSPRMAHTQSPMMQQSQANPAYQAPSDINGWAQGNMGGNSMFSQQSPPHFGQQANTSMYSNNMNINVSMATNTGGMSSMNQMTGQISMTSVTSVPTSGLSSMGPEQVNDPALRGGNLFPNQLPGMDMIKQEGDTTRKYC

Experiment [16] has as its target Cytochrome P450 2D6 (Homo sapiens, UniProt P10635).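 Also: CYP2D6 member of a cytochrome P450 panel assay.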
Experiment [17] deals with Peroxisome proliferator-activated receptor gamma/Nuclear receptor coactivator 1 (Homo sapiens, UniProt P37231). Briefly: TR-FRET dose response biochemical High Throughput Screening assay for agonists of the steroid receptor coactivator 1 (SRC-1) recruitment by the peroxisome proliferator-activated receptor gamma (PPAR gamma): non-selective agonists. [Related pubchem assays (depositor defined):AID1300, AID1808, AID504735, AID631]. It counts as protein assay.

Voltage-gated inwardly rectifying potassium channel KCNH2, sequence (Q12809 whole entry): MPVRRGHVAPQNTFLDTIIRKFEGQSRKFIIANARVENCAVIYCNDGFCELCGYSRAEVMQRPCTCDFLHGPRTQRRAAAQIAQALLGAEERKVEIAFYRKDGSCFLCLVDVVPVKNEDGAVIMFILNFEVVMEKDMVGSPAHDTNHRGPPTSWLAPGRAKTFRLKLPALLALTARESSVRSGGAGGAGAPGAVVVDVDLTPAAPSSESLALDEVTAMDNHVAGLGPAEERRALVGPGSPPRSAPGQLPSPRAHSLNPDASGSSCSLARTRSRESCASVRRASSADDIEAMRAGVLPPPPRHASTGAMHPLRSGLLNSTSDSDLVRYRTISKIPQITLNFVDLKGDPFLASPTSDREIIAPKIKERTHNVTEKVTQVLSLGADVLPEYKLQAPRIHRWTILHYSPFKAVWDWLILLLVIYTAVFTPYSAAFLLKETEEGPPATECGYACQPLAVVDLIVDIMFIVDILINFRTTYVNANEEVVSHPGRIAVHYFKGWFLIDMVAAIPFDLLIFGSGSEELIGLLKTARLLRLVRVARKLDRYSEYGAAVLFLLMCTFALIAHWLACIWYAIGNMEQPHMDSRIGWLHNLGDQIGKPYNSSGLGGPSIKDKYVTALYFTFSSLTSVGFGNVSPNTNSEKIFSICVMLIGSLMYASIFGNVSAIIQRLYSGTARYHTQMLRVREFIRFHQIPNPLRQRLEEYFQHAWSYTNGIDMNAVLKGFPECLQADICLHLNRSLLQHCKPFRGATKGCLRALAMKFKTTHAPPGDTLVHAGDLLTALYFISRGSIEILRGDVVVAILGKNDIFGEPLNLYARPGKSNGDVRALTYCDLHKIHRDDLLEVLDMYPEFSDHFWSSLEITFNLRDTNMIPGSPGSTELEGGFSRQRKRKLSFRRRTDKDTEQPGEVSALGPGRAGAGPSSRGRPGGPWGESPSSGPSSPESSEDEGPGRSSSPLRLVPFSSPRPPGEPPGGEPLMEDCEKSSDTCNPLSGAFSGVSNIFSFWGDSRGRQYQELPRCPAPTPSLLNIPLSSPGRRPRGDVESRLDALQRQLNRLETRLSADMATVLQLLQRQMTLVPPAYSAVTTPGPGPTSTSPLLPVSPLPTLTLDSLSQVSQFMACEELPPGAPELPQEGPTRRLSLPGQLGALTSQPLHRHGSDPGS
Cytochrome P450 3A4, sequence (P08684 whole entry): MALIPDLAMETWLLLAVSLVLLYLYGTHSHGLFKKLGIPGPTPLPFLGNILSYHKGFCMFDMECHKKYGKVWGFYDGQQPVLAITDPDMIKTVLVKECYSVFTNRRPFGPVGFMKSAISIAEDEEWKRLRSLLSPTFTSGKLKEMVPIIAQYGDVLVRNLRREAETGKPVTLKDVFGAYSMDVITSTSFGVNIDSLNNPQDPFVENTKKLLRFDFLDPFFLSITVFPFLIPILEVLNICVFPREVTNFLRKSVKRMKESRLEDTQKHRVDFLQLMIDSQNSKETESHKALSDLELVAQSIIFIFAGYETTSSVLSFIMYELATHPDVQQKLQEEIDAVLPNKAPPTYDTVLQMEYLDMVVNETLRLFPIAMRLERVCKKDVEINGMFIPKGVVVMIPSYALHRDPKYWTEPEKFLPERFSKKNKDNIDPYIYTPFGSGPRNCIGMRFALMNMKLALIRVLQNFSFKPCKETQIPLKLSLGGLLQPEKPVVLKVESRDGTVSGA
Cytochrome P450 2D6, sequence (P10635 whole entry): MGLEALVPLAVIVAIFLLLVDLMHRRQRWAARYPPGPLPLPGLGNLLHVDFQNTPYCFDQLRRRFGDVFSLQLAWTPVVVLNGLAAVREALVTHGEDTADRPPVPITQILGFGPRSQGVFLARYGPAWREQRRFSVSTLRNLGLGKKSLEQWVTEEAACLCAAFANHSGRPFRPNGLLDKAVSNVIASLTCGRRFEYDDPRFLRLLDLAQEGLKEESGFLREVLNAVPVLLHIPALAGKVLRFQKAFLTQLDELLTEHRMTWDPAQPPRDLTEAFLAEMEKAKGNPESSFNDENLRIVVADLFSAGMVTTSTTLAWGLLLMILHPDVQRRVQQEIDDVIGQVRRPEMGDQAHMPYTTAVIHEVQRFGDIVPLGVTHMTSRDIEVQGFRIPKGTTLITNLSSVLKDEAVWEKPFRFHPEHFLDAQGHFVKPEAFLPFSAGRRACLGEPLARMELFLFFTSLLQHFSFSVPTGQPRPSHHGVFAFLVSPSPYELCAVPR
Genome polyprotein, sequence (P29990 2492-3391 limits assumed): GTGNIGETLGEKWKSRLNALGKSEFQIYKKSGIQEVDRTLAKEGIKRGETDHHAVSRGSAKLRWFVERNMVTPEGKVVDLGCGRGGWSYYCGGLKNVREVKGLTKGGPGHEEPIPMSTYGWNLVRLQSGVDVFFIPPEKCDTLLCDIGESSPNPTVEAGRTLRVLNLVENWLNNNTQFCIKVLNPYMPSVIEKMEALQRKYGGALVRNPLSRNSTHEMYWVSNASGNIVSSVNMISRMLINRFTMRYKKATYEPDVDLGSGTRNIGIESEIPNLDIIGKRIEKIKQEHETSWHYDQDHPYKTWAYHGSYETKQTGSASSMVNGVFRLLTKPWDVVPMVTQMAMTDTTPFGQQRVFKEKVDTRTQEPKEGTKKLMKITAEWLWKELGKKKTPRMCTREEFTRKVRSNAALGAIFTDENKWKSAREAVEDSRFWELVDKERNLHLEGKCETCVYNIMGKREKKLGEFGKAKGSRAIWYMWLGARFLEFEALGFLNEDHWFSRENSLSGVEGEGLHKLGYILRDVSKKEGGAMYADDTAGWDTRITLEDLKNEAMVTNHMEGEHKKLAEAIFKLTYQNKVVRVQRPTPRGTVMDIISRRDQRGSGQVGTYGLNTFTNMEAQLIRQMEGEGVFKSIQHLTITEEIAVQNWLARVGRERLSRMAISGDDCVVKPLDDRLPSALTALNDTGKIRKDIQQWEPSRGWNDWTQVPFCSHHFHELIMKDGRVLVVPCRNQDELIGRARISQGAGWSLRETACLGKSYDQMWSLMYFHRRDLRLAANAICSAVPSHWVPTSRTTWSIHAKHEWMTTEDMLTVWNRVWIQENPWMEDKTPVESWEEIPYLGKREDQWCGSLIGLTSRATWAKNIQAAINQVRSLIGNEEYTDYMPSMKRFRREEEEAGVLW

As a reminder, the IC50 is the point on the concentration scale where inhibition reaches its midpoint. On to `O=C(NCc1ccccc1)C(c1ccccc1)n1c(=O)c(-c2ccco2)nc2ccccc21` (centres undefined), for which, in [1], the IC50 was 2.93 µM (active).
As a reminder, the AC50 is the midpoint of the concentration-response curve, whichever way the signal moves. For `CN1CCC23CCCC[C@H]2C1Cc1ccc(O)cc13` (some centres undefined), the AC50 in experiment [2] was 2.51 µM (inconclusive).
One may read the EC50 as the concentration at which the effect is half-maximal. As usually defined, the CC50 is the concentration at which the toxic effect on the cells reaches its halfway point. With `C[C@H]1COC2=C1C(=O)C(=O)c1c2ccc2c1CCCC2(C)C` [CRYPTOTANSHINONE], the results for the 50% effective concentration (EC50) in [3], in [4] and in experiment [7] were 14.1 µM (active), 14.8 µM (active) and 5.17 µM (active), respectively. Besides, the CC50 in experiment [5] is 33.4 µM (active). Also, in [6], the IC50 is 90.1 µM (active).
Consider `COc1ccc(-n2nc(C(F)(F)F)cc2-c2ccc(Cl)cc2)cc1` [SC-560], for which the AC50 in experiment [8] was 25.1 µM (inconclusive); in experiment [9], 39.8 µM (inconclusive); in [2], 31.6 µM (inconclusive).
`OC(CNC1CCCCC1)C(F)(F)F` (centres undefined): the values for the EC50 in experiment [10], in [12] and in experiment [13] were > 54.7 µM (inactive), > 54.7 µM (inactive) and > 55.9 µM (inactive), respectively. Also, in [11], the IC50 was > 89.1 µM (inactive).
As for `CCOc1ccc2c(c1)nc(SCC(=O)c1ccc(Br)s1)n2C`, the EC50 in [14] is > 79.4 µM (not active); in [15] it was 22.9 µM (not active); in experiment [17], > 79.4 µM (inactive). For the same molecule, in experiment [16], the AC50 was 12.6 µM (inconclusive).
Consider `CCN(c1ccccc1)S(=O)(=O)c1ccc(N2CCN(c3ccc(OC)cc3)CC2)nc1`, for which the EC50 was > 54.7 µM (inactive) in experiment [10], > 54.7 µM (inactive) in experiment [12] and > 55.9 µM (inactive) in experiment [13]. The IC50 in [11] is > 89.2 µM (inactive).
`C/C=C1/C(=O)C[C@H]2[C@@H]3CCC4=CC(=O)CC[C@]4(C)[C@H]3CC[C@]12C` [E-GUGGULSTERONE]: the AC50 in [2] was 17.8 µM (inconclusive).
As to `Brc1ccc(Oc2ccc(Br)cc2Br)c(Br)c1`, the AC50 in [2] was 17.8 µM (inconclusive).
